Reference: US10363299B2, “Compositions and methods for preventing and treating rhinovirus infections” (priority 2015, dated 2019)
“And” between values parts separate entries of the source, which are not always exact repeats. Identical values can stand only once.

Legend:
RV-specific CD4+ T cells = test: Direct ex vivo pMHCII tetramer staining of non-stimulated PBMCs; type: cell-based, human; set-up: key to Validated: Y means validated; conditions: for Ex Vivo Frequency (# per 10^6 CD4): directly ex vivo, without culture, one value per subject; for Validated: reliable ex vivo signal
Text: (§1) Peptide libraries consisting of 20mers with a 12 amino acid overlap were generated to span the VP1, VP2 and VP4 protein sequences of RV-A16, and VP1 and VP2 protein sequences of RV-A39 (UniprotKB accession # Q82122, Q5XLP5). […] Biologically relevant pMHCII complexes were identified by tetramer-guided epitope mapping (TGEM). This involved 2 steps: First, PBMC cultures established from subjects with known HLA-DR types were stimulated with RV peptide pools derived from VP1, VP2, or VP4, and then stained with pMHCII tetramer pools composed of HLA-DR molecules corresponding to those expressed in the test subject; Second, positive signals were de-convoluted by repeating and staining with single-peptide tetramers. Tetramers that gave strong positive signals (˜1% of total CD4+ T cells) in the single peptide-tetramer screen in more than one subject, were then re-tested for their ability to detect RV-specific CD4+ T cells in non-stimulated PBMCs (denoted as ex vivo analysis) in multiple subjects.
(§2) All experiments were performed in subjects expressing HLA-DR molecules corresponding to the selected tetramer. Precursor frequencies of circulating tetramer+ cells were then calculated by established methods. Tetramer+ cells were phenotyped for surface markers by staining PBMCs with PE-conjugated tetramers, labeling with anti-PE magnetic beads, enriching with an AutoMACS separator (Miltenyi Biotec, Auburn, Calif., USA), and then counterstaining for surface markers. A tetramer displaying an irrelevant peptide, GAD555-567, was used as a staining control. For simplicity, identified RV-A16 peptide epitopes were given a numerical designation.

CD4+ T cells = test: Tetramer-guided epitope mapping (TGEM): pMHCII tetramer staining of PBMC cultures stimulated with RV peptides; type: cell-based, human; conditions: one value per subject
Text: as §1, §2

[1] = HLA allele 1*0404 tetramer, peptide-stimulated PBMC cultures
[2] = HLA allele 1*1501 tetramer, peptide-stimulated PBMC cultures
[3] = HLA allele 1*0701 tetramer, peptide-stimulated PBMC cultures
[4] = HLA allele 1*1101 tetramer, peptide-stimulated PBMC cultures
[5] = HLA allele 1*0101 tetramer, tetramer-positive CD4+ T cells in peptide-stimulated PBMC cultures
[6] = HLA allele 1*0401 tetramer, peptide-stimulated PBMC cultures
[7] = HLA allele 1*0301 tetramer, peptide-stimulated PBMC cultures

**Q.** For AAKDGHIGHIVMQYMYVPPG [VP1P17], which “Ex Vivo Frequency (# per 10^6 CD4)” value (RV-specific CD4+ T cells; HLA allele 1*0404 tetramer) is on record?
**A.** The value was 112 # per 10^6 CD4.

**Q.** And the “In Vitro Frequency (% CD4)” value (CD4+ T cells; [1])?
**A.** The value was 2.00 % CD4 and 2.99 % CD4 and 2.60 % CD4.

**Q.** What does the source list for ASKFHQGTLLVVMIPEHQLA [VP2P15]?
**A.** In Vitro Frequency (% CD4) (CD4+ T cells; [1]): 0.98 % CD4 and 0.81 % CD4; In Vitro Frequency (% CD4) (CD4+ T cells; [2]): 0.55 % CD4 and 0.53 % CD4

**Q.** For EITMVPSVAAKDGHIGHIVM [VP1P16], which “In Vitro Frequency (% CD4)” value (CD4+ T cells; [3]) is on record?
**A.** Its value is 0.60 % CD4 and 0 % CD4.

**Q.** Which “Ex Vivo Frequency (# per 10^6 CD4)” value (RV-specific CD4+ T cells; HLA allele 1*1101 tetramer) does the source give for EQLHKVKVVTRIYHKAKHTK [VP1P29] here?
**A.** Its value is 0 # per 10^6 CD4 (2×) and 3 # per 10^6 CD4.

**Q.** And the “In Vitro Frequency (% CD4)” value (CD4+ T cells; [4])?
**A.** The value was 3.35 % CD4 and 2.79 % CD4.

**Q.** Which “In Vitro Frequency (% CD4)” value (CD4+ T cells; [3]) does the source give for FTYARFDSEITMVPSVAAKD [VP1P15] here?
**A.** The value was 0.26 % CD4 and 0 % CD4.

**Q.** Which results are given for FWQHGQPFPRFSLPFLSIAS [VP1P22]?
**A.** Ex Vivo Frequency (# per 10^6 CD4) (RV-specific CD4+ T cells; HLA allele DRB5 tetramer): 10 # per 10^6 CD4 and 4 # per 10^6 CD4; In Vitro Frequency (% CD4) (CD4+ T cells; HLA allele DRB5 tetramer, peptide-stimulated PBMC cultures): 3.52 % CD4 and 0.74 % CD4

**Q.** What does the source list for GIFGENMFYHFLGRSGYTVH [VP2P12]?
**A.** In Vitro Frequency (% CD4) (CD4+ T cells; [5]): 0.63 % CD4 and 0 % CD4 and 1.23 % CD4; In Vitro Frequency (% CD4) (CD4+ T cells; [4]): 1.55 % CD4 and 0 % CD4 and 0.38 % CD4

**Q.** For HIVMQYMYVPPGAPIPTTRN [VP1P18], which “Ex Vivo Frequency (# per 10^6 CD4)” value (RV-specific CD4+ T cells; HLA allele 1*0401 tetramer) is on record?
**A.** Its value is 2 # per 10^6 CD4.

**Q.** And the “Ex Vivo Frequency (# per 10^6 CD4)” value (RV-specific CD4+ T cells; HLA allele 1*0404 tetramer)?
**A.** The value was 247 # per 10^6 CD4 and 10 # per 10^6 CD4 and 52 # per 10^6 CD4 and 5 # per 10^6 CD4.

**Q.** And the Validated (RV-specific CD4+ T cells; HLA allele 1*0404 tetramer)?
**A.** Its Validated is “Y”.

**Q.** What about the “In Vitro Frequency (% CD4)” value (CD4+ T cells; [5]) of the same sequence?
**A.** The value was 3.51 % CD4 and 0 % CD4 (2×).

**Q.** What about the “In Vitro Frequency (% CD4)” value (CD4+ T cells; [6]) of the same sequence?
**A.** The value was 0 % CD4 and 0.65 % CD4.

**Q.** And the “In Vitro Frequency (% CD4)” value (CD4+ T cells; [1])?
**A.** Its value is 1.84 % CD4 and 4.22 % CD4 and 2.76 % CD4.

**Q.** With ISNIVPITVSISPMCAEFSG [VP2P30] as the sequence, how does the “In Vitro Frequency (% CD4)” value (CD4+ T cells; [2]) read?
**A.** Its value is 0.46 % CD4 and 0 % CD4.

**Q.** With ITVSISPMCAEFSGARAKTV [VP2P31] as the sequence, how does the “In Vitro Frequency (% CD4)” value (CD4+ T cells; [2]) read?
**A.** The value was 0.37 % CD4 and 0 % CD4.

**Q.** How did the “In Vitro Frequency (% CD4)” value (CD4+ T cells; [4]) turn out when LDSKMWNSTSKGWWWKLPDA [VP2P9] was run?
**A.** Its value is 0.22 % CD4 and 0 % CD4 (2×).

**Q.** With LLGNLLIFPHQFINLRSNNS [VP2P23] as the sequence, how does the “In Vitro Frequency (% CD4)” value (CD4+ T cells; [5]) read?
**A.** Its value is 1.6 % CD4 and 3.19 % CD4 and 1.58 % CD4.

**Q.** LLVVMIPEHQLATVNKGNVN [VP2P16] was tested. Which “In Vitro Frequency (% CD4)” value (CD4+ T cells; [2]) did it give?
**A.** The value was 0 % CD4 and 3 % CD4.

**Q.** What does the source list for NEKQPSDDNWLNFDGTLLGN [VP2P21]?
**A.** Ex Vivo Frequency (# per 10^6 CD4) (RV-specific CD4+ T cells; HLA allele 1*0301 tetramer): 29 # per 10^6 CD4 and 4 # per 10^6 CD4 and 6 # per 10^6 CD4; Validated (RV-specific CD4+ T cells; HLA allele 1*0301 tetramer): Y; Ex Vivo Frequency (# per 10^6 CD4) (RV-specific CD4+ T cells; HLA allele 1*0401 tetramer): 9 # per 10^6 CD4 and 63 # per 10^6 CD4 and 3 # per 10^6 CD4; Validated (RV-specific CD4+ T cells; HLA allele 1*0401 tetramer): Y; In Vitro Frequency (% CD4) (CD4+ T cells; [7]): 1.57 % CD4 and 0.87 % CD4; In Vitro Frequency (% CD4) (CD4+ T cells; [6]): 5.13 % CD4 and 0.89 % CD4; In Vitro Frequency (% CD4) (CD4+ T cells; [1]): 0 % CD4 and 0.65 % CD4

**Q.** Which “Ex Vivo Frequency (# per 10^6 CD4)” value (RV-specific CD4+ T cells; HLA allele 1*0401 tetramer) does the source give for NWLNFDGTLLGNLLIFPHQF [VP2P22] here?
**A.** Its value is 1 # per 10^6 CD4.

**Q.** What about the “In Vitro Frequency (% CD4)” value (CD4+ T cells; [5]) of the same sequence?
**A.** Its value is 0.35 % CD4 and 0 % CD4 (2×).

**Q.** What about the “In Vitro Frequency (% CD4)” value (CD4+ T cells; [7]) of the same sequence?
**A.** The value was 2.61 % CD4 and 0.75 % CD4.

**Q.** What about the “In Vitro Frequency (% CD4)” value (CD4+ T cells; [6]) of the same sequence?
**A.** The value was 3.38 % CD4 and 0.89 % CD4.

**Q.** And the “In Vitro Frequency (% CD4)” value (CD4+ T cells; [4])?
**A.** Its value is 0 % CD4 (2×) and 1.31 % CD4.
